Results published in patent US11452725B2, “Chiral diaryl macrocycles and uses thereof” (TURNING POINT THERAPEUTICS, INC., priority 2015, dated 2022).
Entries after “also recorded” stand apart in the source; their conditions may differ.

Tests used:
MARK3 = target: T1, MARK3 (Homo sapiens, UniProt P27448); test: Biochemical kinase assay (Reaction Biology); details: 10 μM ATP
T1 construct: purchased Reaction Biology Corporation (contract assay)

LCK = target: T2, LCK (Homo sapiens, UniProt P06239); test: Biochemical kinase assay (Reaction Biology); details: 10 μM ATP
T2 construct: purchased Reaction Biology Corporation (contract assay)

IGFR = target: T3, IGFR (Homo sapiens, UniProt P08069); test: Biochemical kinase assay (Reaction Biology); details: 10 μM ATP
T3 construct: purchased Reaction Biology Corporation (contract assay)

[1] = tested on: NIH3T3 EML4-ALK WT tumors; test: NIH3T3 EML4-ALK WT subcutaneous xenograft model; format: in vivo, athymic nude mice; details: 12 days
DDR2 = target: T4, DDR2 (Homo sapiens, UniProt Q16832); test: Biochemical kinase assay (Reaction Biology); details: 10 μM ATP
T4 construct: purchased Reaction Biology Corporation (contract assay)

TNK2 = target: T5, TNK2 (Homo sapiens, UniProt Q07912); test: Biochemical kinase assay (Reaction Biology); details: 10 μM ATP
T5 construct: purchased Reaction Biology Corporation (contract assay)

PLK4 = target: T6, PLK4 (Homo sapiens, UniProt O00444); test: Biochemical kinase assay (Reaction Biology); details: 10 μM ATP
T6 construct: purchased Reaction Biology Corporation (contract assay)

FAK = FAK (Homo sapiens, UniProt Q05397); test: KINOMEscan kinase binding assay (DiscoveRx)
Procedure: (§1) Kinase binding assays were performed at DiscoveRx using the general KINOMEscan Kd Protocol (Fabian, M. A. et al., “A small molecule-kinase interaction map for clinical kinase inhibitors,” Nat. Biotechnol. 2005, 23(3):329-36). For most assays, kinase-tagged T7 phage strains were prepared in an E. coli host derived from the BL21 strain. E. coli were grown to log-phase and infected with T7 phage and incubated with shaking at 32° C. until lysis. The lysates were centrifuged and filtered to remove cell debris. The remaining kinases were produced in HEK-293 cells and subsequently tagged with DNA for qPCR detection. […] The liganded beads were blocked with excess biotin and washed with blocking buffer (SeaBlock (Pierce), 1% BSA, 0.05% Tween 20, 1 mM DTT) to remove unbound ligand and to reduce nonspecific binding. […] All reactions were performed in polystyrene 96-well plates in a final volume of 0.135 mL. […] The kinase concentration in the eluates was measured by qPCR.
(§2) Binding constants (Kds) were calculated with a standard dose-response curve using the Hill equation: Response=Background+(Signal−Background)/(1+(Kd^Hill Slope/Dose^Hill Slope)) The Hill Slope was set to −1. Curves were fitted using a non-linear least square fit with the Levenberg-Marquardt algorithm.

ARK5 = ARK5 (Homo sapiens, UniProt O60285); test: KINOMEscan kinase binding assay (DiscoveRx)
Procedure: as §1, §2

KM12 cell line = test: cells; details: Homo sapiens, KM12, 72 h, read-out: Cell proliferation of KM12 cell line IC50
TXK = target: T7, TXK (Homo sapiens, UniProt P42681); test: Biochemical kinase assay (Reaction Biology); details: 10 μM ATP
T7 construct: purchased Reaction Biology Corporation

CD44 = CD44 expression by immunoblotting in H2228 cells; format: cell-based, human; details: 48 hours treatment, 0-1000 nM
Procedure: NSCLC cell line H2228 (harboring endogenous EML4-ALK fusion gene) was cultured in RPMI medium supplemented with 10% fetal bovine serum and 100 U/mL of penicillin/streptomycin. Ba/F3 and NIH3T3 cells stably expressing ROS1, or TRKA, or TRKB, or TRKC (WT or mutant) were cultured as mentioned above. […] Cells were collected after treatment and lysed in RIPA buffer (50 mM Tris, pH 7.4, 150 mM NaCl, 1% NP-40, 0.5% Deoxycholate, 0.1% SDS) supplemented with 10 mM EDTA, 1× Halt protease and phosphatase inhibitors (Thermo Scientific). Protein lysates (approximately 20 μg) was resolved on 4-12% Bolt Bis-Tris precasted gels with MES running buffer (Life Technologies), transferred to nitrocellulose membranes using Trans-Blot Turbo Transfer System (Bio-Rad) and detected with antibodies targeting phosphorylated phosphorylated ROS1 and total ROS1 (Cell Signaling Technology), phosphorylated TRK A/B (Cell Signaling Technology), total TRKA antibody (Santa Cruz Biotechnology), phosphorylated SRC Y416 (Cell Signaling Technology), total SRC (Cell Signaling Technology), phosphorylated FAK Y576/577 (Cell Signaling Technology), total FAK (Cell Signaling Technology), phosphorylated paxillin Y118 (Cell Signaling Technology), total paxillin (Cell Signaling Technology), phosphorylated EGFR and total EGFR, CD44, and Tubulin (Sigma). […]

FGR = target: T8, FGR (Homo sapiens, UniProt P09769); test: Biochemical kinase assay (Reaction Biology); details: 10 μM ATP
T8 construct: purchased Reaction Biology Corporation

TYK2 = target: T9, TYK2 (Homo sapiens, UniProt P29597); test: Biochemical kinase assay (Reaction Biology); details: 10 μM ATP
T9 construct: purchased Reaction Biology Corporation (contract assay)

IRR = target: T10, IRR (Homo sapiens, UniProt P14616); test: Biochemical kinase assay (Reaction Biology); details: 10 μM ATP
T10 construct: purchased Reaction Biology Corporation (contract assay)

[2] = tested on: NIH3T3 SDC4-ROS1 WT tumors; test: NIH3T3 SDC4-ROS1 WT subcutaneous xenograft model; format: in vivo, athymic nude mice; details: 26 days
Procedure: Female athymic nude mice and SCID/Beige mice (5-8 weeks of age) were obtained from Charles River Laboratory and were housed in Innovive IVC disposable cages on HEPA filtered ventilated racks with ad libitum access to rodent chow and water. Five million cells in 100 μL, serum-free medium were implanted subcutaneously in the right flank region of the mouse. Karpas299 cells were implanted into the SCID/Beige mice. KM12 cells, NIH3T3 EML4-ALK wild type mutant cells, and NIH3T3 SCD4-ROS1 wild type mutant cells were implanted into the athymic nude mice, respectively. All models except KM12 were implanted with 50% matrigel (Corning, Inc) in the medium. Tumor size and body weight were measured on designated days. Tumor size was measured with an electronic caliper and tumor volume was calculated as the product of length*width^2*0.5.
The SDC4-ROS1 fusion gene is considered as the driver for tumor progression in NSCLC. […] The control group of mice were given vehicle only. Tumor volume was measured by caliper on the indicated days and is shown at mean±sem in FIG. 9.

JAK3 = target: T11, JAK3 (Homo sapiens, UniProt P52333); test: Biochemical kinase assay (Reaction Biology); details: 10 μM ATP
T11 construct: purchased Reaction Biology Corporation (contract assay)

T9 sequence (P29597 whole entry): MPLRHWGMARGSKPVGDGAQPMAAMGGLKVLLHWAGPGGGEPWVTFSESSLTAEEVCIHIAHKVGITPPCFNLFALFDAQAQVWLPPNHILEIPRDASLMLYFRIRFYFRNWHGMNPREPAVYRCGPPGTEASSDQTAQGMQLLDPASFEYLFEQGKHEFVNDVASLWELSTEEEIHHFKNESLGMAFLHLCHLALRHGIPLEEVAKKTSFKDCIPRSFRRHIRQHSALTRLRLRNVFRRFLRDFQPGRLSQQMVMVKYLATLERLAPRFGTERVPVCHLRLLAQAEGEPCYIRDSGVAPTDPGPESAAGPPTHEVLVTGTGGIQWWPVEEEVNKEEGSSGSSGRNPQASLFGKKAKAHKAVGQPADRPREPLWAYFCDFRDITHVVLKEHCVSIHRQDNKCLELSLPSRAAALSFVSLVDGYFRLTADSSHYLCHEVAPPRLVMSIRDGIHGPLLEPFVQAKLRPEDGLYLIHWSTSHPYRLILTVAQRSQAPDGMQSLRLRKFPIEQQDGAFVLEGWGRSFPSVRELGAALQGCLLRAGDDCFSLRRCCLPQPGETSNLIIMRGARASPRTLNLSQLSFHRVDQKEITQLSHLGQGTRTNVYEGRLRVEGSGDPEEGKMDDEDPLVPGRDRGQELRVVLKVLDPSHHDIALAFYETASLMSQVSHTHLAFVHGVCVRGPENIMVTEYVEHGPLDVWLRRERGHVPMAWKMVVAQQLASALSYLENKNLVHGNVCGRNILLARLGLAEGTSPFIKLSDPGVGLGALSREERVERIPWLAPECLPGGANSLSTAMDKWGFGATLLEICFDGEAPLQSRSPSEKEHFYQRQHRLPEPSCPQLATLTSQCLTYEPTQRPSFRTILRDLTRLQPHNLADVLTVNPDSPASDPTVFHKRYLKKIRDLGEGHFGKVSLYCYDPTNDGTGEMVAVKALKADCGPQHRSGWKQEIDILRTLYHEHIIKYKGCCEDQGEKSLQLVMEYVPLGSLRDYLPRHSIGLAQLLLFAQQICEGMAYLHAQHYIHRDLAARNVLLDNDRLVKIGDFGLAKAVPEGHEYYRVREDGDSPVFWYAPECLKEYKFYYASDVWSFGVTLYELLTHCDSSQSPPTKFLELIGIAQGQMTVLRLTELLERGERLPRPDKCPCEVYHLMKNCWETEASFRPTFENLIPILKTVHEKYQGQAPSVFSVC
Sequence of ARK5 (O60285 whole entry): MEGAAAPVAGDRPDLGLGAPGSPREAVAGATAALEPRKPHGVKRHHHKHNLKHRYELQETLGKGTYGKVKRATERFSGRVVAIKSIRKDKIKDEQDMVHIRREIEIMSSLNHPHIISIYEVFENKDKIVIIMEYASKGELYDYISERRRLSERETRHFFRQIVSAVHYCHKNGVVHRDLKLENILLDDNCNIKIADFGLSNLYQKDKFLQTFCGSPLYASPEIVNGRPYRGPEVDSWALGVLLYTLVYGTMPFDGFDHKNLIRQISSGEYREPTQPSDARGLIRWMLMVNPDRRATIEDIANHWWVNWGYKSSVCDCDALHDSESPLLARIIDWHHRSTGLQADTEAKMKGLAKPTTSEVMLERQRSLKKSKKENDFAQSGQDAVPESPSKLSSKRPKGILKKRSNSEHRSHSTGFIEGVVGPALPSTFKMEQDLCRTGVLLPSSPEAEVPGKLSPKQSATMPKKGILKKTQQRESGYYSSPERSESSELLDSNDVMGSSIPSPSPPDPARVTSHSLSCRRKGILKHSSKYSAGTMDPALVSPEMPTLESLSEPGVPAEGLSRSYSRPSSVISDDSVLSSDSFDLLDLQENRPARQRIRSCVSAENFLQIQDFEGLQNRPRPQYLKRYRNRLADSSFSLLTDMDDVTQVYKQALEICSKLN
T6 sequence (O00444 whole entry): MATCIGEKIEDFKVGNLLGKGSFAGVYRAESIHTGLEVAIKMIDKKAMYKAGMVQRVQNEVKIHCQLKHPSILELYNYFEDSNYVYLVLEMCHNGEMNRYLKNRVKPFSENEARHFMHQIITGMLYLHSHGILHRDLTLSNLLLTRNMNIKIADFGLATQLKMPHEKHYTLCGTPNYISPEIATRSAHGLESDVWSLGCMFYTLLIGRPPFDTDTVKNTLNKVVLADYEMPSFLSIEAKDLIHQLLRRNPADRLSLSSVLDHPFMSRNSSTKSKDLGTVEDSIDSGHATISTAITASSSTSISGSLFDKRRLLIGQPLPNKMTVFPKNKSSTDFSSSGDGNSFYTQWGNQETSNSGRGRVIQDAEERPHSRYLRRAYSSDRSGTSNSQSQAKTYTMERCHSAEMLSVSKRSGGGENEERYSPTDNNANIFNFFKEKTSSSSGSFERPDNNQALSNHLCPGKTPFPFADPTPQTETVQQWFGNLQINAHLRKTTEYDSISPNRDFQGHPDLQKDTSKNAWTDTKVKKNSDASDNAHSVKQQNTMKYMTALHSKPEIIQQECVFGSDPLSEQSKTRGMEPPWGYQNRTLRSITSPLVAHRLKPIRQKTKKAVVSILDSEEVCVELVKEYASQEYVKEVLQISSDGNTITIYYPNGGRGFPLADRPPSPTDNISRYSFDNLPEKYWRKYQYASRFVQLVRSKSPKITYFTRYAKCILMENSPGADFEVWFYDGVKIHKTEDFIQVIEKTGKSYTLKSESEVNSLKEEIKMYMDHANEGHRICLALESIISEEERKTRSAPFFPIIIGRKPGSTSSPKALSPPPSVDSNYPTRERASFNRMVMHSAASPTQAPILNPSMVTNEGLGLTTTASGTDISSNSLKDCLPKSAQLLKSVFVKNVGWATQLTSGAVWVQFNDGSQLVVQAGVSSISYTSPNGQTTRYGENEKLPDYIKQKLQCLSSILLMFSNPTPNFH
T3 sequence (P08069 31-1367): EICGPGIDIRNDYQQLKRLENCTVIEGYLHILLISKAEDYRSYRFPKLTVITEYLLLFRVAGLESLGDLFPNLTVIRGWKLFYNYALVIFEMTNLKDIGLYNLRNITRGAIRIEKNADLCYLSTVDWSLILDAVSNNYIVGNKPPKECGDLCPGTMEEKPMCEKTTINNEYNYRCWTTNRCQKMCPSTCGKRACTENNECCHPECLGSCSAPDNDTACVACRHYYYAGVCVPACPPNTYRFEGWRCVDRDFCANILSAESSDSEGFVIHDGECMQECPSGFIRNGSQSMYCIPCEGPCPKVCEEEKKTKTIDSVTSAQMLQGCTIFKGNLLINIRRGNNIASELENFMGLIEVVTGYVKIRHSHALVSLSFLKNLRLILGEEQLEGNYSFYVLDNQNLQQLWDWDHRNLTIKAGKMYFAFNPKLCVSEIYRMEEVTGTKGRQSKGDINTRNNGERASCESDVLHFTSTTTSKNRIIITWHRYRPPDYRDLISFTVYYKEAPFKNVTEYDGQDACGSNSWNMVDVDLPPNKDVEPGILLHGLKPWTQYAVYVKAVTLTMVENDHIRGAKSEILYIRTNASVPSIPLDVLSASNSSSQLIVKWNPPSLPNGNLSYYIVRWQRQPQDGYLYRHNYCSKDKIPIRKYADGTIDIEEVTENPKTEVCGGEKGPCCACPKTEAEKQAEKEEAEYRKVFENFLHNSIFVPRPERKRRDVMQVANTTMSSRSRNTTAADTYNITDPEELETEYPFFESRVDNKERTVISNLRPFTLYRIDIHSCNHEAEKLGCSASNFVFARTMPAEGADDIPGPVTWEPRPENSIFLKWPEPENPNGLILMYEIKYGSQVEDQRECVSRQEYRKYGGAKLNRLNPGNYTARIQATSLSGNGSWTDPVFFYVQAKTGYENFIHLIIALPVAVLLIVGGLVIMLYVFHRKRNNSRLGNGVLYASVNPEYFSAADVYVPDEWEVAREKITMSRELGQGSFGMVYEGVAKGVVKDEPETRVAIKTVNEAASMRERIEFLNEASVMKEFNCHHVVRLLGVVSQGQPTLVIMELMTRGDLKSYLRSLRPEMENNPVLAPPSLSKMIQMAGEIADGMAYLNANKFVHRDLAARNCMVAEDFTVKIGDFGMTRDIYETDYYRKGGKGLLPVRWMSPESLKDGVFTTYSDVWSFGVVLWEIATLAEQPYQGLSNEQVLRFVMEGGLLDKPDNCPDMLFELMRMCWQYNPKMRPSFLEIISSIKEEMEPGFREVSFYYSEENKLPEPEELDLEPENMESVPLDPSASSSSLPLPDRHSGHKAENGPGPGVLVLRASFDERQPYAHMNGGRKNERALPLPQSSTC
T2 sequence (P06239 whole entry): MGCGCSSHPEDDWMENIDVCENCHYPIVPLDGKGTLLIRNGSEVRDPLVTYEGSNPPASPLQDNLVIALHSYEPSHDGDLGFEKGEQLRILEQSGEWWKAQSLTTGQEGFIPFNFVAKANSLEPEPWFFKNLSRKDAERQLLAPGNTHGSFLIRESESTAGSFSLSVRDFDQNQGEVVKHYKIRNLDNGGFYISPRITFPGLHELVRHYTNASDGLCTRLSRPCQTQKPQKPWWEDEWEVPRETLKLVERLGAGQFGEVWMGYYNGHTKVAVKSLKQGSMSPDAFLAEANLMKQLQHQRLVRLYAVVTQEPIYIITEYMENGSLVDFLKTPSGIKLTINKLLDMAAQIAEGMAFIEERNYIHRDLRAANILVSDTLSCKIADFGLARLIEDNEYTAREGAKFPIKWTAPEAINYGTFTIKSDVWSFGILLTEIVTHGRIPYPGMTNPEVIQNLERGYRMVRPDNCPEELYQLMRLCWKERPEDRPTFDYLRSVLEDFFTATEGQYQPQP

C[C@H]1CNC(=O)c2cnn3ccc(nc23)N[C@H](C)c2cc(F)ccc2O1 [Compound 1, (7S,13R)-11-fluoro-7,13-dimethyl-6,7,13,14-tetrahydro-1,15-ethenopyrazolo[4,3-f][1,4,8,10]benzoxatriazacyclotridecin-4(5H)-one]
IC50 (MARK3): 512 nM
IC50 (LCK): 18.6 nM
IC50 (IGFR): 111 nM
mice exhibiting tumor regression ([1]; 15 mg/kg/BID orally): 2 of 8
mice exhibiting tumor regression ([1]; 50 mg/kg/BID orally): 8 of 8
tumor regression (REG) ([1]; 50 mg/kg/BID orally): 41%
IC50 (DDR2): 23 nM
IC50 (TNK2): 24.1 nM
IC50 (PLK4): 126 nM
Kd (FAK): 27 nM
Kd (ARK5): 3.7 nM
IC50 (KM12 cell line): 0.3 nM
IC50 (TXK): 3.17 nM
CD44 expression level (CD44): down-regulates CD44 expression; also recorded: suppressed CD44 expression level in H2228 cells in a concentration-dependent manner
IC50 (FGR): 3.05 nM
IC50 (TYK2): 21.6 nM
IC50 (IRR): 18.1 nM
mice exhibiting tumor regression ([2]; 15 mg/kg BID orally): 7 of 8
tumor regression (REG) ([2]; 15 mg/kg BID orally): 39%
mice exhibiting tumor regression ([2]; 50 mg/kg BID orally): 7 of 7
tumor regression (REG) ([2]; 50 mg/kg BID orally): 69%
IC50 (JAK3): 50 nM
